According to paper PMC7316778 (Nature Communications, 2020):
Values joined by “and” are separate entries in the source; they are usually repeats but may differ in a detail not shown here. Equal entries are not always repeated. Where two headings read alike, the source gives them in different places.

What was measured:
DYRK1B = DYRK1B (Homo sapiens, UniProt Q9Y463); test: SelectScreen kinase assay; details: 1 h, 1 μM WEL028, 1 h preincubation
Protocol: (§1) Selectivity profiling assays were performed by the Invitrogen SelectScreen™ Services. […] The concentration of ATP was selected to be equal to the KM, unless indicated otherwise.

NTRK1 (TRKA) = NTRK1 (TRKA) (Homo sapiens, UniProt P04629); test: SelectScreen kinase assay
Protocol: as §1

STK22B (TSSK2) = biological target: T1, STK22B (TSSK2) (Homo sapiens, UniProt Q96PF2); test: SelectScreen kinase assay
T1 sequence (Q96PF2 1-358): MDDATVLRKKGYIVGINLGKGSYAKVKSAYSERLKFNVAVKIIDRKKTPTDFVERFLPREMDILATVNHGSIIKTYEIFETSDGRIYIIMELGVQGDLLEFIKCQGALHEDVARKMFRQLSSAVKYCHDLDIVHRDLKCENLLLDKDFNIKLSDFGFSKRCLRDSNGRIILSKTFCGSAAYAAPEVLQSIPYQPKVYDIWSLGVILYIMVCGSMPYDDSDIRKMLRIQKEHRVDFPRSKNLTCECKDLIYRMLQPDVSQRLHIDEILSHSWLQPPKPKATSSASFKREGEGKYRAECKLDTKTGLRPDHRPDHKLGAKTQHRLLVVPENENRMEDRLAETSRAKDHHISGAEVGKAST
Protocol: as §1

PEAK1 = PEAK1 (Homo sapiens, UniProt Q9H792); test: SelectScreen kinase assay
Protocol: as §1

CAMK2D (CaMKII delta) = CAMK2D (CaMKII delta) (Homo sapiens, UniProt Q13557); test: SelectScreen kinase assay
Protocol: as §1

CDC42 BPA (MRCKA) = CDC42 BPA (MRCKA) (Homo sapiens, UniProt Q5VT25); test: SelectScreen kinase assay
Protocol: as §1

FES^WT = biological target: T2, FES^WT (Homo sapiens, UniProt P07332); test: PamChip microarray peptide phosphorylation; assay type: biochemical; details: Figure 7f, WT + WEL028, n 3
T2 construct: human FES cDNA encoding residues 448–822 or human FER cDNA encoding residues 448–820 was amplified by PCR; made in house; host or cells: E. coli BL21(DE3), co-expressing YopH phosphatase

MAPK8 (JNK1) = MAPK8 (JNK1) (Homo sapiens, UniProt P45983); test: SelectScreen kinase assay
Protocol: as §1

RPS6KA4 (MSK2) = RPS6KA4 (MSK2) (Homo sapiens, UniProt O75676); test: SelectScreen kinase assay
Protocol: as §1

CLK4 = CLK4 (Homo sapiens, UniProt Q9HAZ1); test: SelectScreen kinase assay
Protocol: as §1

MAP3K3 (MEKK3) = MAP3K3 (MEKK3) (Homo sapiens, UniProt Q99759); test: SelectScreen kinase assay
Protocol: as §1

STK17B (DRAK2) = biological target: T3, STK17B (DRAK2) (Homo sapiens, UniProt O94768); test: SelectScreen kinase assay
T3 sequence (O94768 1-372): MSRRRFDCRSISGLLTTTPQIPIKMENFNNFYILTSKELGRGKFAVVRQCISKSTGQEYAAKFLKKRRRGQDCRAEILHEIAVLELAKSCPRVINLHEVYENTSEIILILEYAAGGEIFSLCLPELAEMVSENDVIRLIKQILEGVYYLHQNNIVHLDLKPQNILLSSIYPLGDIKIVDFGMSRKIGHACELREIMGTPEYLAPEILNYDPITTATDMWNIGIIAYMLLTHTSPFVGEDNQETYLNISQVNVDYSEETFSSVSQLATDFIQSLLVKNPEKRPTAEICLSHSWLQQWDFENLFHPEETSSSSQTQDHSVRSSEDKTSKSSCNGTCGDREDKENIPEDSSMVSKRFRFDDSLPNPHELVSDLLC
Protocol: as §1

[1] = 1 h, 1 μM WEL028, 1 h preincubation
[2] = 1 µM, ZLYTE, ATP Km app, listed as WEL028, 1 µM

PEAK1, sequence (Q9H792 whole entry): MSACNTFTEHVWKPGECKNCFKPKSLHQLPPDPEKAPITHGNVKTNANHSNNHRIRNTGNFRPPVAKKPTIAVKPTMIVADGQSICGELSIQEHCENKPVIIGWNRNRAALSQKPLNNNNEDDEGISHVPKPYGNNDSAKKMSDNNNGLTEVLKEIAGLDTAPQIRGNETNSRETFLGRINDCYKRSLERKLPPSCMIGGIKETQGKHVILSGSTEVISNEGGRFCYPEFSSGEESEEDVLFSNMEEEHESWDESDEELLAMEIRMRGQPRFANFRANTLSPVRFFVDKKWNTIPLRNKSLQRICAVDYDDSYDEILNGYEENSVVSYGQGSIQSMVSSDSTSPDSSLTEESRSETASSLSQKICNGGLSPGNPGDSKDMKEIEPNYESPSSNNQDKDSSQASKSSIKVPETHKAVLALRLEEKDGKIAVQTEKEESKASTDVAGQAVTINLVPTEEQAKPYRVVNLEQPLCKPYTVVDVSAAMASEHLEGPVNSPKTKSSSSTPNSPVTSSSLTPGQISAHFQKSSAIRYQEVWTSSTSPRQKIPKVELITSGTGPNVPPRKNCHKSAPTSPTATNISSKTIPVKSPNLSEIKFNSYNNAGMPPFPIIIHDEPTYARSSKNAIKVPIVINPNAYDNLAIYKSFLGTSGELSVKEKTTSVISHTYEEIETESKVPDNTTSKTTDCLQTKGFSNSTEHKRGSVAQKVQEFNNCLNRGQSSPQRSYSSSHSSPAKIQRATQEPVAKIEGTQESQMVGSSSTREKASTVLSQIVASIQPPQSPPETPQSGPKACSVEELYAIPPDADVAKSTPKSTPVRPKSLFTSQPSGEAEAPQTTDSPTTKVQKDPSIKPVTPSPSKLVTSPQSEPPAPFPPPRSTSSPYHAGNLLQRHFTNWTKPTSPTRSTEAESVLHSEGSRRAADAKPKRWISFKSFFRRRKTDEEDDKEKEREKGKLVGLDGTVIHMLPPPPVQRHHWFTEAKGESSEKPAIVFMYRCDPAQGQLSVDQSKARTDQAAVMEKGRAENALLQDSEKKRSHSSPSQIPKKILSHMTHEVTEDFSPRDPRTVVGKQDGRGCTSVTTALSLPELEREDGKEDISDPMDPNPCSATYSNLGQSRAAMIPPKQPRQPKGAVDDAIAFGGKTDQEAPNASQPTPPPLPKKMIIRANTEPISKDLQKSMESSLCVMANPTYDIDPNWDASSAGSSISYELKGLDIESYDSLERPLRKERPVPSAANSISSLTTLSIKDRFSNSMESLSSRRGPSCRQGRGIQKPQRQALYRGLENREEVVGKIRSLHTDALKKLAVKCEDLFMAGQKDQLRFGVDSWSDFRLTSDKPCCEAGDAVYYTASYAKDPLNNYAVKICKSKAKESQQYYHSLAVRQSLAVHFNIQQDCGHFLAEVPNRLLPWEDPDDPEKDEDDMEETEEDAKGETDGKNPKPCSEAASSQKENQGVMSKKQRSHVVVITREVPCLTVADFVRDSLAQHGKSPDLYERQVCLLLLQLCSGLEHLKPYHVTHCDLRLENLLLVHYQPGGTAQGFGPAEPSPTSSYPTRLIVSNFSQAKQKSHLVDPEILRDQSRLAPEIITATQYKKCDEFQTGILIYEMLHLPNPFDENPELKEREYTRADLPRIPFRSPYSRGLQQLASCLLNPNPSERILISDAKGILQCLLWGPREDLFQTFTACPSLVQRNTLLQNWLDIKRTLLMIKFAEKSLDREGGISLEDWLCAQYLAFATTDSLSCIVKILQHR
RPS6KA4 (MSK2), sequence (O75676 whole entry): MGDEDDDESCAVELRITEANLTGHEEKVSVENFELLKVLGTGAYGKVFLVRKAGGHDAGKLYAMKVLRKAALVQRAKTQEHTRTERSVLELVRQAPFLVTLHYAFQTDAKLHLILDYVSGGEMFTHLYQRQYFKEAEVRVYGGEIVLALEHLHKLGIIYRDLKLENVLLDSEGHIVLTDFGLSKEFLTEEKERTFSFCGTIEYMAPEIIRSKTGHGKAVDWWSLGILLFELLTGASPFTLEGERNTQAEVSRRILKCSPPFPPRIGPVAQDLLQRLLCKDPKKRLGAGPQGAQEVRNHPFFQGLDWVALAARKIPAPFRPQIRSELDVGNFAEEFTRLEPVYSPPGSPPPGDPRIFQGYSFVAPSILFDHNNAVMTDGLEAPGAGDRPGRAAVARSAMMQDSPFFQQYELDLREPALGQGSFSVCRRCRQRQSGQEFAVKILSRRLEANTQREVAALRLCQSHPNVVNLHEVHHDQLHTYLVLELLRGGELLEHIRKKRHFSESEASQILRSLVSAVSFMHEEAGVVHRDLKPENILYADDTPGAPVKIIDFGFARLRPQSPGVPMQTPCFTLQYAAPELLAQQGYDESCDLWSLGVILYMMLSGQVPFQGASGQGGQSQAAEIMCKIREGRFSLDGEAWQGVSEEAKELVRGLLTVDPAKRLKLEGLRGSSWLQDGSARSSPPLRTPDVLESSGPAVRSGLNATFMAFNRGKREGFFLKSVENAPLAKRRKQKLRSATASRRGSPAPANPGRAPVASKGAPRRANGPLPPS
MAPK8 (JNK1), sequence (P45983 whole entry): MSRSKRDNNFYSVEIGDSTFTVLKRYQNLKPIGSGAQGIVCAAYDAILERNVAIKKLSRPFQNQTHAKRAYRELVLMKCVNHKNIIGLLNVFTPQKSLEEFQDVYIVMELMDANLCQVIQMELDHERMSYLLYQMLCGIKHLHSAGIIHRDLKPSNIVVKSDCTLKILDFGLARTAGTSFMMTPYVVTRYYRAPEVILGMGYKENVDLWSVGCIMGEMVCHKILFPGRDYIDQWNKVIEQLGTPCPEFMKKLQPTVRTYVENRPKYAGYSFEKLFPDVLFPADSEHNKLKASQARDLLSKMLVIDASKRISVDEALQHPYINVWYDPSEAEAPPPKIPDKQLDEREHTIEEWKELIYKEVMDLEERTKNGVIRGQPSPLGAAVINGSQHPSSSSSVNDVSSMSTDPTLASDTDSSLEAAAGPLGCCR
T2 sequence (P07332 448-822): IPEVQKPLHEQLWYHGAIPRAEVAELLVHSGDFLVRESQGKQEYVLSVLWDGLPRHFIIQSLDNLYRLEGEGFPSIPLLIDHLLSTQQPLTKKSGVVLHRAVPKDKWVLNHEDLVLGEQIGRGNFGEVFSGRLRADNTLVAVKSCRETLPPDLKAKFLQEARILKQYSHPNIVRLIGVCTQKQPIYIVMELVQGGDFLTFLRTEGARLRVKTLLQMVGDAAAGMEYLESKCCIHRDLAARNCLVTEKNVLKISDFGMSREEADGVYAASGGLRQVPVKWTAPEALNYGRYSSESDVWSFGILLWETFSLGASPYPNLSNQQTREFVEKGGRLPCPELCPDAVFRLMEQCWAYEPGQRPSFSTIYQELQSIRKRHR
CLK4, sequence (Q9HAZ1 whole entry, species assumed): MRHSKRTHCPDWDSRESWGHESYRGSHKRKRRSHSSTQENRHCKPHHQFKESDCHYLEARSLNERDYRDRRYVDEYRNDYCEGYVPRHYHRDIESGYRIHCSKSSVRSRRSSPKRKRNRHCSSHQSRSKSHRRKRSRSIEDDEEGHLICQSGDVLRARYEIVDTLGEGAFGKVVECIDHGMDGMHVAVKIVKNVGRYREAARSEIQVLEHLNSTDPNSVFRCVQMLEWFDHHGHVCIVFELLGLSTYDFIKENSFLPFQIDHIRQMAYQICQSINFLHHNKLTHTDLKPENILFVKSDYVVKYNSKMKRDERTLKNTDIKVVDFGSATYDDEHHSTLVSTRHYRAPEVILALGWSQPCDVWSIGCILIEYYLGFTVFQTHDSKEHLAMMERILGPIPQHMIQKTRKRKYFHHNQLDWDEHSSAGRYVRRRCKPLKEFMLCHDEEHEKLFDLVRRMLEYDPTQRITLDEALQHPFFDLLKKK
NTRK1 (TRKA), sequence (P04629 33-796): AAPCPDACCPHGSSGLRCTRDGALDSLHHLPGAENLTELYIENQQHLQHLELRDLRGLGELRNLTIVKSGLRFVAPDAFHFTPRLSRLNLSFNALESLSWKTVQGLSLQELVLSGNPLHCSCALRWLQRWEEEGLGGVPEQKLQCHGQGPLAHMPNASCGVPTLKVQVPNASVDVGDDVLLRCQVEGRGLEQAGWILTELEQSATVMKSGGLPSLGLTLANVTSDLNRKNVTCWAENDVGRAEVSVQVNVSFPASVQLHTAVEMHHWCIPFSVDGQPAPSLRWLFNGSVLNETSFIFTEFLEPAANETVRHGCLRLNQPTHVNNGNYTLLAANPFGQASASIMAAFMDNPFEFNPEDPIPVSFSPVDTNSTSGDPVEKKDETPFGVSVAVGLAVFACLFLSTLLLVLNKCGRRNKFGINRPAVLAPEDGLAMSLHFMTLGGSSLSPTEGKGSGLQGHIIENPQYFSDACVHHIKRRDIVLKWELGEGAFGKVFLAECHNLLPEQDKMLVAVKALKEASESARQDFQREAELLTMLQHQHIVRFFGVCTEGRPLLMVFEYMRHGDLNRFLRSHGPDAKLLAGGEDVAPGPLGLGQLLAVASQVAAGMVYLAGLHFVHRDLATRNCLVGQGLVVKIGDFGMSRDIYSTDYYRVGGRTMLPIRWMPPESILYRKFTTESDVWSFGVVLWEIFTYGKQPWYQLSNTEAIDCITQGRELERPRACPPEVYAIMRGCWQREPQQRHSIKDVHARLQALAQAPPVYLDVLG
CAMK2D (CaMKII delta), sequence (Q13557 whole entry): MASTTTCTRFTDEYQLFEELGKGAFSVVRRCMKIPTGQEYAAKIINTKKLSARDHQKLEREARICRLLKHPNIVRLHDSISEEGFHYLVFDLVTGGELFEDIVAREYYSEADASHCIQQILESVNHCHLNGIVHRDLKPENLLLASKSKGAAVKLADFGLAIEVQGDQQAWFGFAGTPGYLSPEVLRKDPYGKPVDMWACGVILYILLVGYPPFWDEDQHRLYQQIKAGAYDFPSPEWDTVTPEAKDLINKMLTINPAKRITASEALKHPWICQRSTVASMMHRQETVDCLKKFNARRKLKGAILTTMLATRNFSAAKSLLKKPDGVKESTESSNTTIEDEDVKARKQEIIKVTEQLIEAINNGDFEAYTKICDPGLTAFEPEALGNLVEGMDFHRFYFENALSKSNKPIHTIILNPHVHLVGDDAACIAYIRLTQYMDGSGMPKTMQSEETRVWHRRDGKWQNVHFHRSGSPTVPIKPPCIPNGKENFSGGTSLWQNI

C#CCOc1ccc(Nc2ncc(Cl)c(Nc3ccccc3NC(=O)C=C)n2)c(OC)c1 [Compound 6]
inhibition at 1 µM (DYRK1B): 0% | inhibition at 1 µM (NTRK1 (TRKA); [1]): 17% | Inhibition at 1 µM (%) (NTRK1 (TRKA); NTRK1 (TRKA), 1 µM, ZLYTE, ATP Km app, listed as WEL028, 1 µM): 16% | inhibition at 1 µM (NTRK1 (TRKA); read-out: Inhibition at 1 µM (%), NTRK1 (TRKA), 1 µM, ZLYTE, ATP Km app): 17% | Inhibition at 1 µM (%) (STK22B (TSSK2); [2]): 17% | inhibition at 1 µM (STK22B (TSSK2); [1]): 18% | inhibition at 1 µM (STK22B (TSSK2); read-out: Inhibition at 1 µM (%), 1 µM, ZLYTE, ATP Km app): 18% | inhibition at 1 µM (PEAK1; [1]): 7% | Inhibition at 1 µM (%) (PEAK1; PEAK1, 1 µM, ZLYTE, ATP Km app, listed as WEL028, 1 µM): 8% | inhibition at 1 µM (PEAK1; read-out: Inhibition at 1 µM (%), PEAK1, 1 µM, ZLYTE, ATP Km app): 6% | inhibition at 1 µM (CAMK2D (CaMKII delta); [1]): 8% | Inhibition at 1 µM (%) (CAMK2D (CaMKII delta); CAMK2D (CaMKII delta), 1 µM, ZLYTE, ATP Km app): 15% | inhibition at 1 µM (CDC42 BPA (MRCKA); [1]): -7% | Inhibition at 1 µM (%) (CDC42 BPA (MRCKA); CDC42 BPA (MRCKA), 1 µM, ZLYTE, ATP Km app): -20% | Mean signal, time course (FES^WT; time 0 min): -37.0 | Mean signal, time course (FES^WT; time 5 min): 24.0 | Mean signal, time course (FES^WT; time 10 min): 80.0 | Mean signal, time course (FES^WT; time 15 min): 138.0 | Mean signal, time course (FES^WT; time 20 min): 193.0 | Mean signal, time course (FES^WT; time 25 min): 246.0 | Mean signal, time course (FES^WT; time 30 min): 301.0 | Mean signal, time course (FES^WT; time 35 min): 361.0 | Mean signal, time course (FES^WT; time 40 min): 414.0 | Mean signal, time course (FES^WT; time 45 min): 472.0 | Mean signal, time course (FES^WT; time 50 min): 524.0 | Mean signal, time course (FES^WT; time 55 min): 585.0 | Mean signal, time course (FES^WT; time 60 min): 641.0 | Inhibition (%) (MAPK8 (JNK1); 1 μM WEL028, 1 h preincubation): 16% | Inhibition at 1 µM (%) (MAPK8 (JNK1); MAPK8 (JNK1), 1 µM, ZLYTE, ATP 100, listed as WEL028, 1 µM): 22% | inhibition at 1 µM (MAPK8 (JNK1); read-out: Inhibition at 1 µM (%), MAPK8 (JNK1), 1 µM, ZLYTE, ATP 100): 11% | Inhibition at 1 µM (%) (RPS6KA4 (MSK2); [2]): -4% and 6% | inhibition at 1 µM (RPS6KA4 (MSK2); [1]): 1% | IC50 (CLK4): 1.26 µM | inhibition at 1 µM (CLK4; [1]): 53% | inhibition at 10 µM (CLK4; 1 h, log[inhibitor] (M) -5.00, LanthaScreen Binding): 30% | inhibition at 3.311 µM (CLK4; 1 h, log[inhibitor] (M) -5.48, LanthaScreen Binding): 55% | inhibition at 1.122 µM (CLK4; 1 h, log[inhibitor] (M) -5.95, LanthaScreen Binding): 64% | inhibition at 0.3715 µM (CLK4; 1 h, log[inhibitor] (M) -6.43, LanthaScreen Binding): 39% | inhibition at 0.123 µM (CLK4; 1 h, log[inhibitor] (M) -6.91, LanthaScreen Binding): 26% | inhibition at 0.0138 µM (CLK4; 1 h, log[inhibitor] (M) -7.86, LanthaScreen Binding): 15% | inhibition at 0.001514 µM (CLK4; 1 h, log[inhibitor] (M) -8.82, LanthaScreen Binding): 11% | inhibition at 0.004571 µM (CLK4; 1 h, log[inhibitor] (M) -[…], LanthaScreen Binding): 8% | Inhibition at 1 µM (%) (CLK4; CLK4, 1 µM, LanthaScreen Binding, listed as WEL028, 1 µM): 52% | Apparent fold selectivity (CLK4; IC50 on that kinase divided by IC50 on FES^S700C): 272 fold | inhibition at 1 µM (CLK4; read-out: Inhibition at 1 µM (%), CLK4, 1 µM, LanthaScreen Binding): 54% | inhibition at 1 µM (MAP3K3 (MEKK3); [1]): 7% | inhibition at 1 µM (MAP3K3 (MEKK3); read-out: Inhibition at 1 µM (%), MAP3K3 (MEKK3), 1 µM, LanthaScreen Binding): 8% | Inhibition at 1 µM (%) (STK17B (DRAK2); 1 µM, LanthaScreen Binding, listed as WEL028, 1 µM): 8% | inhibition at 1 µM (STK17B (DRAK2); [1]): 9% | inhibition at 1 µM (STK17B (DRAK2); read-out: Inhibition at 1 µM (%), 1 µM, LanthaScreen Binding): 9%
